From PubChem BioAssay (NCI)
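Exposure lasted 48 hours, with cells grown in 96-well plates and compounds tested at five concentrations. At the TGI there is no net growth.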

Columns and labels:
Experiment in all cases: DTP human tumour cell line panel, 48 h
[1] = test system: MDA-MB-435
[2] = test system: MOLT-4 leukemia
[3] = test system: MDA-N
[4] = test system: SK-MEL-2 melanoma
[5] = test system: TK-10 renal
[6] = test system: NCI-H522 lung
[7] = test system: DU-145 prostate
[8] = test system: HS 578T breast
[9] = test system: CAKI-1 renal
[10] = test system: HT29 colon
[11] = test system: MDA-MB-231 breast
[12] = test system: HOP-92 NSCLC
[13] = test system: OVCAR-8 ovarian
[14] = test system: SK-MEL-5 melanoma
[15] = test system: EKVX NSCLC
[16] = test system: HCT-116 colon
[17] = test system: UACC-257 melanoma
[18] = test system: A549 NSCLC
[19] = test system: SNB-75 CNS
[20] = test system: IGROV1 ovarian
[21] = test system: 786-0 renal
[22] = test system: MALME-3M melanoma
[23] = test system: SN12C renal
[24] = test system: NCI-H226 lung
[25] = test system: LOX IMVI melanoma
[26] = test system: U251 CNS
[27] = test system: BT-549 breast
[28] = test system: A498 renal
[29] = test system: K-562 leukemia
[30] = test system: SK-MEL-28 melanoma
[31] = test system: SR leukemia
[32] = test system: OVCAR-4 ovarian
[33] = test system: HCT-15 colon
[34] = test system: RPMI-8226 leukemia
[35] = test system: PC-3 prostate
[36] = test system: HOP-62 NSCLC
[37] = test system: MCF7 breast
[38] = test system: OVCAR-3 ovarian
[39] = test system: OVCAR-5 ovarian
[40] = test system: KM12 colon
[41] = test system: SNB-19 CNS
[42] = test system: ACHN renal
[43] = test system: SF-268 CNS
[44] = test system: COLO 205 colon
[45] = test system: SF-295 CNS
[46] = test system: UO-31 renal
[47] = test system: SK-OV-3 ovarian
[48] = test system: UACC-62 melanoma
[49] = test system: NCI-H460 lung
[50] = test system: M14 melanoma
[51] = test system: SF-539 CNS
[52] = test system: NCI/ADR-RES ovarian
[53] = test system: NCI-H23 lung
[54] = test system: RXF 393 renal
[55] = test system: T-47D breast
[56] = test system: HL-60(TB) leukemia
[57] = test system: SW-620 colon

Cn1c(=O)c2[nH]c(CSCc3ccccc3)nc2n(C)c1=O
TGI [1]: > 100 µM | TGI [2]: > 100 µM | TGI [3]: > 100 µM | TGI [4]: > 100 µM | TGI [5]: > 100 µM | TGI [6]: > 100 µM | TGI [7]: > 100 µM | TGI [8]: > 100 µM | TGI [9]: > 100 µM | TGI [10]: > 100 µM | TGI [11]: > 100 µM | TGI [12]: > 100 µM | TGI [13]: > 100 µM | TGI [14]: > 100 µM | TGI [15]: > 100 µM | TGI [16]: > 100 µM | TGI [17]: > 100 µM | TGI [18]: > 100 µM | TGI [19]: > 100 µM | TGI [20]: > 100 µM | TGI [21]: > 100 µM | TGI [22]: > 100 µM | TGI [23]: > 100 µM | TGI [24]: > 100 µM | TGI [25]: > 100 µM | TGI [26]: > 100 µM | TGI [27]: > 100 µM | TGI [28]: > 100 µM | TGI [29]: > 100 µM | TGI [30]: > 100 µM | TGI [31]: > 100 µM | TGI [32]: > 100 µM | TGI [33]: > 100 µM | TGI [34]: > 100 µM | TGI [35]: > 100 µM | TGI [36]: > 100 µM | TGI [37]: > 100 µM | TGI [38]: > 100 µM | TGI [39]: > 100 µM | TGI [40]: > 100 µM | TGI [41]: > 100 µM | TGI [42]: > 100 µM | TGI [43]: > 100 µM | TGI [44]: > 100 µM | TGI [45]: > 100 µM | TGI [46]: > 100 µM | TGI [47]: > 100 µM | TGI [48]: > 100 µM | TGI [49]: > 100 µM | TGI [50]: > 100 µM | TGI [51]: > 100 µM | TGI [52]: > 100 µM | TGI [53]: > 100 µM | TGI [54]: > 100 µM | TGI [55]: > 100 µM

Cc1n[nH]c(=S)n1/N=C/c1ccc(-c2ccc(Cl)cc2)o1
TGI [1]: > 100 µM | TGI [2]: > 100 µM | TGI [3]: > 100 µM | TGI [4]: > 100 µM | TGI [5]: > 100 µM | TGI [6]: > 100 µM | TGI [7]: > 100 µM | TGI [8]: > 100 µM | TGI [9]: > 100 µM | TGI [10]: > 100 µM | TGI [11]: > 100 µM | TGI [12]: > 100 µM | TGI [13]: > 100 µM | TGI [14]: > 100 µM | TGI [15]: > 100 µM | TGI [16]: > 100 µM | TGI [17]: > 100 µM | TGI [18]: > 100 µM | TGI [19]: 82.9 µM | TGI [20]: > 100 µM | TGI [21]: > 100 µM | TGI [24]: > 100 µM | TGI [25]: > 100 µM | TGI [26]: > 100 µM | TGI [56]: > 100 µM | TGI [27]: > 100 µM | TGI [28]: > 100 µM | TGI [29]: > 100 µM | TGI [30]: > 100 µM | TGI [31]: > 100 µM | TGI [32]: > 100 µM | TGI [33]: > 100 µM | TGI [34]: > 100 µM | TGI [35]: > 100 µM | TGI [36]: > 100 µM | TGI [37]: > 100 µM | TGI [38]: > 100 µM | TGI [39]: > 100 µM | TGI [40]: > 100 µM | TGI [42]: > 100 µM | TGI [43]: > 100 µM | TGI [45]: > 100 µM | TGI [46]: > 100 µM | TGI [49]: > 100 µM | TGI [50]: > 100 µM | TGI [57]: > 100 µM | TGI [51]: > 100 µM | TGI [52]: > 100 µM | TGI [53]: > 100 µM | TGI [54]: > 100 µM | TGI [55]: > 100 µM
